#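 The compound was tested at five concentrations on cells cultured in 96-well plates, with a 48-hour exposure period. Abbreviation: GI50, concentration required for 50% inhibition of growth.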 Activity calls are given as the source filed them. No stated cut-off is given here; in the data, active = GI50 up to about 1.1 µM and inactive = higher.
# Tests used:
# Test in all cases: NCI anticancer screen, dose series, 48 h
# [1] = test system: Hs-578T
# [2] = test system: SF-295
# [3] = test system: MDA-N
# [4] = test system: HCT-116
# [5] = test system: SK-MEL-5
# [6] = test system: OVCAR-8
# [7] = test system: SK-MEL-28
# [8] = test system: MCF7
# [9] = test system: UACC-257
# [10] = test system: U-251
# [11] = test system: PC-3
# [12] = test system: UO-31
# [13] = test system: Malme-3M
# [14] = test system: NCI-H23
# [15] = test system: MDA-MB-231
# [16] = test system: T47D
# [17] = test system: NCI-H460
# [18] = test system: ACHN
# [19] = test system: SR
Structure (SMILES),GI50 [1],GI50 [2],GI50 [3],GI50 [4],GI50 [5],GI50 [6],GI50 [7],GI50 [8],GI50 [9],GI50 [10],GI50 [11],GI50 [12],GI50 [13],GI50 [14],GI50 [15],GI50 [16],GI50 [17],GI50 [18],GI50 [19]
Nc1ccc2c(c1)N(C(=O)c1cc3cc(NC(=O)c4cc5ccccc5o4)ccc3[nH]1)CC2CCl (stereo not drawn),0.293 µM (active),0.0434 µM (active),0.183 µM (active),0.0533 µM (active),0.0397 µM (active),0.0397 µM (active),0.177 µM (active),0.0221 µM (active),0.113 µM (active),0.106 µM (active),0.0671 µM (active),0.0296 µM (active),0.122 µM (active),0.0211 µM (active),0.239 µM (active),0.114 µM (active),0.0205 µM (active),0.0199 µM (active),–
C#CCOC(=O)c1ccccc1O,> 100 µM (inactive),> 100 µM (inactive),> 100 µM (inactive),> 100 µM (inactive),> 100 µM (inactive),> 100 µM (inactive),–,> 100 µM (inactive),> 100 µM (inactive),> 100 µM (inactive),> 100 µM (inactive),> 100 µM (inactive),–,> 100 µM (inactive),> 100 µM (inactive),> 100 µM (inactive),> 100 µM (inactive),> 100 µM (inactive),> 100 µM (inactive)
N#Cc1[nH]c(=O)n(-c2cccc3ccccc23)c1N,> 10 µM (inactive),> 10 µM (inactive),> 10 µM (inactive),> 10 µM (inactive),> 10 µM (inactive),> 10 µM (inactive),> 10 µM (inactive),> 10 µM (inactive),> 10 µM (inactive),> 10 µM (inactive),> 10 µM (inactive),–,> 10 µM (inactive),> 10 µM (inactive),> 10 µM (inactive),> 10 µM (inactive),> 10 µM (inactive),> 10 µM (inactive),> 10 µM (inactive)
COc1ccc(/N=C2\C(=N/c3ccc(OC)cc3)N(S(=O)(=O)c3ccccc3)C(=S)N2c2ccc(OC)cc2)cc1,89.1 µM (inactive),> 100 µM (inactive),> 100 µM (inactive),> 100 µM (inactive),86.5 µM (inactive),> 100 µM (inactive),> 100 µM (inactive),> 100 µM (inactive),–,> 100 µM (inactive),> 100 µM (inactive),> 100 µM (inactive),–,> 100 µM (inactive),27.2 µM (inactive),> 100 µM (inactive),–,> 100 µM (inactive),> 100 µM (inactive)
CC1(C)CC23CC(C)(C)c4cccc(c42)OCc2ccc4ccc5ccc(nc5c4n2)COc2cccc1c23,> 50 µM (inactive),> 50 µM (inactive),> 50 µM (inactive),> 50 µM (inactive),> 50 µM (inactive),> 50 µM (inactive),> 50 µM (inactive),> 50 µM (inactive),> 50 µM (inactive),> 50 µM (inactive),> 50 µM (inactive),> 50 µM (inactive),–,–,> 50 µM (inactive),> 50 µM (inactive),> 50 µM (inactive),> 50 µM (inactive),> 50 µM (inactive)
O=C(Cn1c(=O)ccn(C2OC(CO)C(O)C2F)c1=O)c1ccc(F)cc1 (stereo not drawn),> 100 µM (inactive),> 100 µM (inactive),> 100 µM (inactive),> 100 µM (inactive),> 100 µM (inactive),> 100 µM (inactive),> 100 µM (inactive),> 100 µM (inactive),> 100 µM (inactive),> 100 µM (inactive),> 100 µM (inactive),> 100 µM (inactive),> 100 µM (inactive),> 100 µM (inactive),> 100 µM (inactive),> 100 µM (inactive),> 100 µM (inactive),> 100 µM (inactive),–
COc1cc(C(c2ccc3c(c2)OCO3)N2C(=O)CCC2C(=O)O)cc(OC)c1OC (stereo not drawn),> 100 µM (inactive),> 100 µM (inactive),> 100 µM (inactive),> 100 µM (inactive),> 100 µM (inactive),> 100 µM (inactive),> 100 µM (inactive),> 100 µM (inactive),> 100 µM (inactive),> 100 µM (inactive),> 100 µM (inactive),> 100 µM (inactive),> 100 µM (inactive),> 100 µM (inactive),> 100 µM (inactive),> 100 µM (inactive),> 100 µM (inactive),> 100 µM (inactive),–
C1CCN(CCC2CCCCN2)CC1 (stereo not drawn),> 100 µM (inactive),> 100 µM (inactive),> 100 µM (inactive),> 100 µM (inactive),> 100 µM (inactive),> 100 µM (inactive),> 100 µM (inactive),> 100 µM (inactive),> 100 µM (inactive),> 100 µM (inactive),> 100 µM (inactive),–,> 100 µM (inactive),> 100 µM (inactive),> 100 µM (inactive),> 100 µM (inactive),55 µM (inactive),> 100 µM (inactive),> 100 µM (inactive)
CN(/N=C/c1ccc(Cl)c(Cl)c1)C1=NCCN1,18.1 µM (inactive),24.8 µM (inactive),15.7 µM (inactive),17.9 µM (inactive),16.4 µM (inactive),40.3 µM (inactive),–,22.9 µM (inactive),20.1 µM (inactive),23.2 µM (inactive),11.9 µM (inactive),–,18.8 µM (inactive),56 µM (inactive),23 µM (inactive),23 µM (inactive),40.8 µM (inactive),31.9 µM (inactive),31.2 µM (inactive)
O=c1[nH]c(N/N=C\C(O)C(O)C(O)C(O)CO)nc2ccccc12 (stereo not drawn),> 100 µM (inactive),> 100 µM (inactive),> 100 µM (inactive),> 100 µM (inactive),> 100 µM (inactive),> 100 µM (inactive),> 100 µM (inactive),> 100 µM (inactive),> 100 µM (inactive),> 100 µM (inactive),> 100 µM (inactive),> 100 µM (inactive),–,> 100 µM (inactive),> 100 µM (inactive),> 100 µM (inactive),> 100 µM (inactive),> 100 µM (inactive),> 100 µM (inactive)
COC(=O)C1CCC(=O)N1CN(C(C)=O)c1cccc(O)c1 (stereo not drawn),> 100 µM (inactive),> 100 µM (inactive),> 100 µM (inactive),> 100 µM (inactive),> 100 µM (inactive),> 100 µM (inactive),> 100 µM (inactive),> 100 µM (inactive),> 100 µM (inactive),> 100 µM (inactive),> 100 µM (inactive),> 100 µM (inactive),> 100 µM (inactive),> 100 µM (inactive),> 100 µM (inactive),> 100 µM (inactive),> 100 µM (inactive),> 100 µM (inactive),–

# — ChEMBL document CHEMBL1201862, “PubChem BioAssay data set” (2004)
